Assay results taken from ChEMBL document CHEMBL3272271, “Folate antagonists. 13. 2,4-Diamino-6-](alpha,alpha,alpha-trifluoro-m-tolyl)thio]quinazoline and related 2,4-diamino-6-[(phenyl- and naphthyl)thio]quinazolines, a unique class of antimetabolites with extraordinary antimalarial and antibacterial effects” (J Med Chem, 1978).
In brackets after ≈: the same amount, converted by molar mass. Activity calls are given as the source filed them. The rule behind the calls is not given here.

Experiments:
Plasmodium gallinaceum [1] = assay: Antimalarial activity against trophozoite-induced Plasmodium gallinaceum infected in white leghorn chicken assessed as disease cure from parasite infection at 320 mg/kg, sc administered 72 hrs after infection; assay type: functional, organism-based; parameters: dose 320 mg/kg
Plasmodium gallinaceum [2] = assay: Antimalarial activity against trophozoite-induced Plasmodium gallinaceum infected in white leghorn chicken assessed as disease cure from parasite infection at 160 mg/kg, sc administered 72 hrs after infection; assay type: functional, organism-based; parameters: dose 160 mg/kg
Plasmodium falciparum [3] = assay: Antimalarial activity against chloroquine-susceptible, pyrimethamine-resistant Plasmodium falciparum Malayan Camp infected in Aotus trivirgatus owl monkey model assessed as cure from parasite infection at >2.5 mg/kg, po qd for 7 days relative to control; assay type: functional
Plasmodium falciparum [4] = assay: Antimalarial activity against pyrimethamine-sensitive Plasmodium falciparum Vietnam Oak Knoll infected in Aotus trivirgatus owl monkey model assessed as cure from parasite infection at 0.098 to 1.56 mg/kg, po qd for 7 days relative to control; assay type: functional; conditions: dose mg/kg 0.098-1.56
Plasmodium falciparum [5] = assay: Antimalarial activity against pyrimethamine-sensitive Plasmodium falciparum Vietnam Oak Knoll infected in Aotus trivirgatus owl monkey model assessed as cure from parasite infection at 0.6 mg/kg, po qd for 7 days relative to control; assay type: functional
Enterococcus faecalis = assay: Antibacterial activity against Streptococcus faecalis MGH-2 by gradient plate test; assay type: functional
Staphylococcus aureus [6] = assay: Antibacterial activity against Staphylococcus aureus UC-96 by gradient plate test; assay type: functional
Staphylococcus aureus [7] = assay: Antibacterial activity against drug-resistant Staphylococcus aureus S18713 by gradient plate test; assay type: functional
Pseudomonas aeruginosa = assay: Antibacterial activity against Pseudomonas aeruginosa 28 by gradient plate test; assay type: functional
Escherichia coli = assay: Antibacterial activity against Escherichia coli Vogel by gradient plate test; assay type: functional
Shigella sonnei = assay: Antibacterial activity against Shigella sonnei C-10 by gradient plate test; assay type: functional
Plasmodium gallinaceum [8] = assay: Antimalarial activity against sporozoite-induced Plasmodium gallinaceum infected in white leghorn chicken assessed as disease cure from parasite infection at 320 mg/kg, sc administered 72 hrs after infection; assay type: functional, organism-based; parameters: dose 320 mg/kg
Plasmodium gallinaceum [9] = assay: Antimalarial activity against sporozoite-induced Plasmodium gallinaceum infected in white leghorn chicken assessed as disease cure from parasite infection at 160 mg/kg, sc administered 72 hrs after infection; assay type: functional, organism-based; parameters: dose 160 mg/kg
Plasmodium gallinaceum [10] = assay: Antimalarial activity against sporozoite-induced Plasmodium gallinaceum infected in white leghorn chicken assessed as disease cure from parasite infection at 80 mg/kg, sc administered 72 hrs after infection; assay type: functional, organism-based; parameters: dose 80 mg/kg
Plasmodium berghei [11] = assay: Antimalarial activity against Plasmodium berghei infected in mouse assessed as increase in mean survival days of host at 10 mg/kg, sc administered 72 hrs after infection relative to control; assay type: functional; conditions: route subcutaneous
Plasmodium berghei [12] = assay: Antimalarial activity against chloroquine-resistant Plasmodium berghei assessed as drug resistance; assay type: functional, organism-based
Plasmodium berghei [13] = assay: Antimalarial activity against cycloguanil-resistant Plasmodium berghei assessed as drug resistance; assay type: functional, organism-based
Plasmodium falciparum [14] = assay: Antimalarial activity against chloroquine-susceptible, pyrimethamine-resistant Plasmodium falciparum Malayan Camp infected in Aotus trivirgatus owl monkey model assessed as cure from parasite infection at 0.39 to 5 mg/kg, po qd for 7 days relative to control; assay type: functional; conditions: dose mg/kg 0.39-5
Plasmodium berghei [15] = assay: Antimalarial activity against Plasmodium berghei infected in mouse assessed as increase in mean survival days of host at 5 mg/kg, sc administered 72 hrs after infection relative to control; assay type: functional; conditions: route subcutaneous
Plasmodium berghei [16] = assay: Antimalarial activity against Plasmodium berghei infected in mouse assessed as increase in mean survival days of host at 2.5 mg/kg, sc administered 72 hrs after infection relative to control; assay type: functional; conditions: route subcutaneous
Plasmodium berghei [17] = assay: Antimalarial activity against Plasmodium berghei infected in mouse assessed as increase in mean survival days of host at 1.25 mg/kg, sc administered 72 hrs after infection relative to control; assay type: functional; conditions: route subcutaneous
Plasmodium berghei [18] = assay: Antimalarial activity against Plasmodium berghei infected in mouse assessed as disease cure from parasite infection at 640 mg/kg, sc administered 72 hrs after infection; assay type: functional, organism-based; parameters: dose 640 mg/kg
Plasmodium berghei [19] = assay: Antimalarial activity against Plasmodium berghei infected in mouse assessed as disease cure from parasite infection at 320 mg/kg, sc administered 72 hrs after infection; assay type: functional, organism-based; parameters: dose 320 mg/kg
Plasmodium berghei [20] = assay: Antimalarial activity against Plasmodium berghei infected in mouse assessed as disease cure from parasite infection at 160 mg/kg, sc administered 72 hrs after infection; assay type: functional, organism-based; parameters: dose 160 mg/kg
Plasmodium berghei [21] = assay: Antimalarial activity against Plasmodium berghei infected in mouse assessed as disease cure from parasite infection at 80 mg/kg, sc administered 72 hrs after infection; assay type: functional, organism-based; parameters: dose 80 mg/kg
Plasmodium berghei [22] = assay: Antimalarial activity against Plasmodium berghei infected in mouse assessed as disease cure from parasite infection at 40 mg/kg, sc administered 72 hrs after infection; assay type: functional, organism-based; parameters: dose 40 mg/kg
Plasmodium berghei [23] = assay: Antimalarial activity against Plasmodium berghei infected in mouse assessed as disease cure from parasite infection at 20 mg/kg, sc administered 72 hrs after infection; assay type: functional, organism-based; parameters: dose 20 mg/kg
Plasmodium berghei [24] = assay: Antimalarial activity against trophozoite-induced Plasmodium berghei infected in mouse assessed as daily dose required to suppression of 90% parasite infection administered with diet for 6 days; assay type: functional
Plasmodium berghei [25] = assay: Ratio of quinine hydrochloride SD90 to compound SD90 for trophozoite-induced Plasmodium berghei infected in mouse assessed as daily dose required to suppression of 90% parasite infection administered with diet for 6 days; assay type: functional
Plasmodium gallinaceum [26] = assay: Antimalarial activity against trophozoite-induced Plasmodium gallinaceum infected in white leghorn chicken assessed as increase in mean survival days of host at 320 mg/kg, sc administered 72 hrs after infection relative to control; assay type: functional; conditions: route subcutaneous
Plasmodium gallinaceum [27] = assay: Antimalarial activity against trophozoite-induced Plasmodium gallinaceum infected in white leghorn chicken assessed as increase in mean survival days of host at 160 mg/kg, sc administered 72 hrs after infection relative to control; assay type: functional; conditions: route subcutaneous
Plasmodium gallinaceum [28] = assay: Antimalarial activity against trophozoite-induced Plasmodium gallinaceum infected in white leghorn chicken assessed as increase in mean survival days of host at 80 mg/kg, sc administered 72 hrs after infection relative to control; assay type: functional; conditions: route subcutaneous
Plasmodium gallinaceum [29] = assay: Antimalarial activity against trophozoite-induced Plasmodium gallinaceum infected in white leghorn chicken assessed as increase in mean survival days of host at 40 mg/kg, sc administered 72 hrs after infection relative to control; assay type: functional; conditions: route subcutaneous
Plasmodium gallinaceum [30] = assay: Antimalarial activity against trophozoite-induced Plasmodium gallinaceum infected in white leghorn chicken assessed as increase in mean survival days of host at 20 mg/kg, sc administered 72 hrs after infection relative to control; assay type: functional; conditions: route subcutaneous
Plasmodium gallinaceum [31] = assay: Antimalarial activity against trophozoite-induced Plasmodium gallinaceum infected in white leghorn chicken assessed as increase in mean survival days of host at 10 mg/kg, sc administered 72 hrs after infection relative to control; assay type: functional; conditions: route subcutaneous

Nc1nc(N)c2cc(Sc3ccc4ccccc4c3)ccc2n1 was tested, and the Activity (Plasmodium gallinaceum [1]) was “Active”, the Activity (Plasmodium gallinaceum [2]) was “Active” and the Activity (Plasmodium falciparum [3]) was greater than 50%. For the same compound, the Activity (Plasmodium falciparum [4]) was greater than 50%, the Activity (Plasmodium falciparum [5]) was greater than 50% and the MIC (Enterococcus faecalis) was less than 0.25 µg/mL. The MIC (Staphylococcus aureus [6]) was less than 0.25 µg/mL, the MIC (Staphylococcus aureus [7]) was less than 0.25 µg/mL and the MIC (Pseudomonas aeruginosa) was greater than 25 µg/mL. The MIC (Escherichia coli) was less than 0.25 µg/mL, the MIC (Shigella sonnei) was 2.5 µg/mL (≈ 7.85 µM) and the Activity (Plasmodium gallinaceum [8]) was “Active”. For the same compound, the Activity (Plasmodium gallinaceum [9]) was “Active”, the Activity (Plasmodium gallinaceum [10]) was “Active” and the MST (Plasmodium berghei [11]) was 11.3 days. For the same compound, the Activity (Plasmodium berghei [12]) was “inactive”, the Activity (Plasmodium berghei [13]) was “Active” and the Activity (Plasmodium falciparum [14]) was greater than 50%. For the same compound, the MST (Plasmodium berghei [15]) was 6.5 days, the MST (Plasmodium berghei [16]) was 5.3 days and the MST (Plasmodium berghei [17]) was 2.9 days. For the same compound, the Activity (Plasmodium berghei [18]) was “Active”, the Activity (Plasmodium berghei [19]) was “Active” and the Activity (Plasmodium berghei [20]) was “Active”. For the same compound, the Activity (Plasmodium berghei [21]) was “Active”, the Activity (Plasmodium berghei [22]) was “Active” and the Activity (Plasmodium berghei [23]) was “Active”. The SD90 (Plasmodium berghei [24]) was 0.08 mg/kg/day, the Ratio (Plasmodium berghei [25]) was 880 and the MST (Plasmodium gallinaceum [26]) was 16 days. The MST (Plasmodium gallinaceum [27]) was 15 days, the MST (Plasmodium gallinaceum [28]) was 16.2 days and the MST (Plasmodium gallinaceum [29]) was 12.4 days. The MST (Plasmodium gallinaceum [30]) was 7.8 days and the MST (Plasmodium gallinaceum [31]) was 6.2 days.
